Experimental data published in patent US12178791B2, “Haloallylamine sulfone derivative inhibitors of lysyl oxidases and uses thereof” (Syntara Limited, priority 2018, dated 2024).
Where a name gives a salt, the structure may show the parent alone.

How the values were obtained:
Assay type in all cases: biochemical
Bovine LOX = Bovine LOX (Bos taurus (Bovine), UniProt P33072); assay: LOX inhibition, Amplex Red oxidation assay; details: 30 min preincubation at 37 °C, putrescine substrate
Source text: Lysyl oxidase (LOX) is an extracellular copper dependent enzyme which oxidizes peptidyl lysine and hydroxylysine residues in collagen and lysine residues in elastin to produce peptidyl alpha-aminoadipic-delta-semialdehydes. […] There are five LOX family members; these are LOX, LOXL1, LOXL2, LOXL3 and LOXL4. LOX and LOXL family members can be acquired as recombinant active proteins from commercial sources, or extracted from animal tissues like bovine aorta, tendons, pig skin; or prepared from cell cultures. The inhibitory effects of the compounds of the present invention were tested against the given LOX-LOXL preparation using a method based on the detection of hydrogen peroxide with an Amplex Red oxidation assay (Zhou et al. A stable nonfluorescent derivative of resorufin for the fluorometric determination of trace hydrogen peroxide: applications in detecting the activity of phagocyte NADPH oxidase and other oxidases. Anal. Biochem. 1997; 253, 162-168). The assay was developed using either 384 or 96 well format. Briefly, in a standard black, clear bottom 384 well plate assay 25 μL of a dilution of any of the isoenzymes and orthologues in 1.2 M urea, 50 mM sodium borate buffer (pH 8.2) were added into each well in the presence of 1 μM mofegiline and 0.5 mM pargyline (to inhibit SSAO and MAO-B and MAO-A, respectively; not necessary if the enzyme is from a recombinant or purified form). […] Twenty five μL of a reaction mixture containing twice the KM concentration of putrescine (Sigma Aldrich, e.g. 20 mM for LOX, or 10 mM for LOXL2 and LOXL3), 120 μM Amplex Red (Sigma Aldrich) and 1.5 U/mL horseradish peroxidase (Sigma Aldrich) prepared in 1.2 M urea, 50 mM sodium borate buffer (pH 8.2) were then added to the corresponding wells. The above volumes were doubled in the case of 96 wells plate. The fluorescence (RFU) was read every 2.5 min for 30 min at […] 37° C., excitation 565 nm and emission 590 (Optima; BMG labtech). The slope of the kinetics for each well was calculated using MARS data analysis software (BMG labtech) and this value was used to deduce the IC50 value (Dotmatics).

LOXL1 = LOXL1 (Homo sapiens (Human), UniProt Q08397); assay: Jump dilution experiment, sustained inhibition of LOXL1; details: jump dilution after 40 min at 37 °C with 10× or 30× IC50; vs non-inhibited controls;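 also: 30× IC50 used only where needed so inhibitor exceeds enzyme concentration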
Procedure: Jump Dilution experiment: The assay was developed using a 96 well format and the starting enzyme concentration was set 100 times higher than for the inhibition studies. […] After the incubation, the mixture was diluted 50× in assay buffer, followed by a further 2× dilution in Amplex Red-horseradish peroxidase-putrescine reaction mix (same as per the inhibition studies) prior to the fluorescent measurement. Results were expressed in % recovery of the signal after a specified time by comparison with non-inhibited controls.

LOXL2 = LOXL2 (Homo sapiens (Human), UniProt Q9Y4K0); assay: LOXL2 inhibition, Amplex Red oxidation assay; details: 30 min preincubation at 37 °C, putrescine substrate
Source text: Lysyl oxidase (LOX) is an extracellular copper dependent enzyme which oxidizes peptidyl lysine and hydroxylysine residues in collagen and lysine residues in elastin to produce peptidyl alpha-aminoadipic-delta-semialdehydes. […] There are five LOX family members; these are LOX, LOXL1, LOXL2, LOXL3 and LOXL4. LOX and LOXL family members can be acquired as recombinant active proteins from commercial sources, or extracted from animal tissues like bovine aorta, tendons, pig skin; or prepared from cell cultures. The inhibitory effects of the compounds of the present invention were tested against the given LOX-LOXL preparation using a method based on the detection of hydrogen peroxide with an Amplex Red oxidation assay (Zhou et al. A stable nonfluorescent derivative of resorufin for the fluorometric determination of trace hydrogen peroxide: applications in detecting the activity of phagocyte NADPH oxidase and other oxidases. Anal. Biochem. 1997; 253, 162-168). The assay was developed using either 384 or 96 well format. Briefly, in a standard black, clear bottom 384 well plate assay 25 μL of a dilution of any of the isoenzymes and orthologues in 1.2 M urea, 50 mM sodium borate buffer (pH 8.2) were added into each well in the presence of 1 μM mofegiline and 0.5 mM pargyline (to inhibit SSAO and MAO-B and MAO-A, respectively; not necessary if the enzyme is from a recombinant or purified form). Test compounds were dissolved in DMSO and tested in a Concentration Response Curve (CRC) with 11 data points, typically in the micromolar or nanomolar range after incubation with the enzyme for 30 min at 37° C. Twenty five μL of a reaction mixture containing twice the KM concentration of putrescine (Sigma Aldrich, e.g. 20 mM for LOX, or 10 mM for LOXL2 and LOXL3), 120 μM Amplex Red (Sigma Aldrich) and 1.5 U/mL horseradish peroxidase (Sigma Aldrich) prepared in 1.2 M urea, 50 mM sodium borate buffer (pH 8.2) were then added to the corresponding wells. The above volumes were doubled in the case of 96 wells plate. The fluorescence (RFU) was read every 2.5 min for 30 min at […] 37° C., excitation 565 nm and emission 590 (Optima; BMG labtech). The slope of the kinetics for each well was calculated using MARS data analysis software (BMG labtech) and this value was used to deduce the IC50 value (Dotmatics).

[1] = biological target: Human recombinant SSAO/VAP-1 (Homo sapiens (Human), UniProt Q16853); assay: Inhibition of human recombinant SSAO/VAP-1; details: 30 min preincubation at 37 °C, benzylamine 600 μM; read-out: SSAO/VAP-1 Activity IC50
Procedure: Human recombinant SSAO/VAP-1 amine oxidase activity was determined using the coupled colorimetric method as described for monoamine oxidase, copper-containing amine oxidases and related enzymes (Holt A. and Palcic M., A peroxidase-coupled continuous absorbance plate-reader assay for flavin monoamine oxidases, copper-containing amine oxidases and related enzymes. Nat Protoc 2006; 1: 2498-2505). Briefly, a cloned cDNA template corresponding to residues 34-763 of human SSAO/VAP-1, and incorporating a mouse Ig kappa (κ) signal sequence, N-terminal flag epitope tag and tobacco etch virus (TEV) cleavage site, was assembled in a mammalian expression vector (pLO-CMV) by Geneart AG. This vector containing human SSAO/VAP-1 residues was transfected into CHO-Kl glycosylation mutant cell line, Lec 8. A clone stably expressing human SSAO/VAP-1 was isolated and cultured in large scale. Active human SSAO/VAP-1 was purified and recovered using immunoaffinity chromatography. This was used as the source for SSAO/VAP-1 activity. A high-throughput colorimetric assay was developed using either 96 or 384 well format. Briefly, in a standard 96 well plate assay 50 μL of purified human SSAO/VAP-1 (0.25 μg/mL) in 0.1 M sodium phosphate buffer (pH 7.4) was added into each well. Test compounds were dissolved in DMSO and tested in a Concentration Response Curve (CRC) with 4-11 data points, typically in the micromolar or nanomolar range after incubation with human SSAO/VAP-1 for 30 min at 37° C. After 30 min incubation, 50 μL of the reaction mixture containing 600 μM benzylamine (Sigma Aldrich), 120 μM Amplex Red (Sigma Aldrich) and 1.5 U/mL horseradish peroxidase (Sigma Aldrich) prepared in 0.1 M sodium phosphate buffer (pH 7.4) were added to the corresponding well. The fluorescence unit (RFU) was read every 2.5 min for 30 min at 37° C. excitation 565 nm and emission 590 (Optima; BMG labtech). The slope of the kinetics for each well was calculated using MARS data analysis software (BMG labtech) and this value was used to deduce the IC50 value (Dotmatics).

Recombinant human MAO-B = Recombinant human MAO-B (Homo sapiens (Human), UniProt P27338); assay: Inhibition of human recombinant MAO-B; details: benzylamine 100 μM
Procedure: The specificity of the compounds of this invention was tested by determining their ability to inhibit MAO-B activities in vitro. Recombinant human MAO-B (0.06 mg/mL; Sigma Aldrich) was used as source of MAO-B enzyme activities. The assay was performed in a similar way as for human SSAO/VAP-1 (Example 28) except, the substrate benzylamine was used at 100 μM.

Sequence of LOXL1 (Q08397 96-574, species assumed): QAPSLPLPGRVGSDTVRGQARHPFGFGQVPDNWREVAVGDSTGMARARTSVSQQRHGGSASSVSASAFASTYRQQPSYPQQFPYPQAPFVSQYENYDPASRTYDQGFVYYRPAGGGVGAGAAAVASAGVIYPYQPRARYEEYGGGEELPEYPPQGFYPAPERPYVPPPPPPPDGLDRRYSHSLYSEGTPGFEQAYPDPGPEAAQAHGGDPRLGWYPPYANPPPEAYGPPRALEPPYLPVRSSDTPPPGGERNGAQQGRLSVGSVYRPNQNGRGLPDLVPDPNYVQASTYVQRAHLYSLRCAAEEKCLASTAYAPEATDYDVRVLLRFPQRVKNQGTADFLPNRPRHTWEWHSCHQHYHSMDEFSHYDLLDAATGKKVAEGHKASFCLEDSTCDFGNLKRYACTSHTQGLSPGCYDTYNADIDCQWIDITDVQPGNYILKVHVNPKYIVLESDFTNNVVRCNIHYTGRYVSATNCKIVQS
Sequence of Bovine LOX (P33072 170-418): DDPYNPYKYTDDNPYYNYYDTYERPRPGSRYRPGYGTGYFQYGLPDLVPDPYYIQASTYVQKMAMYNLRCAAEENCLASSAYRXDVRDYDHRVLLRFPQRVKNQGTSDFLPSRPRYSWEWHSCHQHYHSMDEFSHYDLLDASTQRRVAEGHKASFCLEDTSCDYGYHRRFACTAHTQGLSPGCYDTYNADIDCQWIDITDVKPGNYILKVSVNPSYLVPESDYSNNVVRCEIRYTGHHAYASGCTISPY
Sequence of Recombinant human MAO-B (P27338 whole entry): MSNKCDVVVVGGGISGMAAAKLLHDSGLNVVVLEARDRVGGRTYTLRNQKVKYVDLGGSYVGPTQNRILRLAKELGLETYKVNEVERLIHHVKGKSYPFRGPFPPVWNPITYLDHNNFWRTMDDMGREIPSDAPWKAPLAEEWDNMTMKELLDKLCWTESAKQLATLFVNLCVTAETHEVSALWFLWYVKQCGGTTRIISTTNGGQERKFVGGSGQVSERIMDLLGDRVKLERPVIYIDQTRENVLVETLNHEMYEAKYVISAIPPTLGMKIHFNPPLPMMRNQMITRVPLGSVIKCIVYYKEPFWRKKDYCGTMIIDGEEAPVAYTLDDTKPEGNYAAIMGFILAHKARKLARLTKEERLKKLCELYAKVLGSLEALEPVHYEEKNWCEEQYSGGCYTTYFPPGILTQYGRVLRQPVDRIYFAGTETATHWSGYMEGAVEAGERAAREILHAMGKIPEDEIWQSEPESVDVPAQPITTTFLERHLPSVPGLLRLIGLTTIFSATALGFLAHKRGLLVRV
Sequence of LOXL2 (Q9Y4K0 26-774): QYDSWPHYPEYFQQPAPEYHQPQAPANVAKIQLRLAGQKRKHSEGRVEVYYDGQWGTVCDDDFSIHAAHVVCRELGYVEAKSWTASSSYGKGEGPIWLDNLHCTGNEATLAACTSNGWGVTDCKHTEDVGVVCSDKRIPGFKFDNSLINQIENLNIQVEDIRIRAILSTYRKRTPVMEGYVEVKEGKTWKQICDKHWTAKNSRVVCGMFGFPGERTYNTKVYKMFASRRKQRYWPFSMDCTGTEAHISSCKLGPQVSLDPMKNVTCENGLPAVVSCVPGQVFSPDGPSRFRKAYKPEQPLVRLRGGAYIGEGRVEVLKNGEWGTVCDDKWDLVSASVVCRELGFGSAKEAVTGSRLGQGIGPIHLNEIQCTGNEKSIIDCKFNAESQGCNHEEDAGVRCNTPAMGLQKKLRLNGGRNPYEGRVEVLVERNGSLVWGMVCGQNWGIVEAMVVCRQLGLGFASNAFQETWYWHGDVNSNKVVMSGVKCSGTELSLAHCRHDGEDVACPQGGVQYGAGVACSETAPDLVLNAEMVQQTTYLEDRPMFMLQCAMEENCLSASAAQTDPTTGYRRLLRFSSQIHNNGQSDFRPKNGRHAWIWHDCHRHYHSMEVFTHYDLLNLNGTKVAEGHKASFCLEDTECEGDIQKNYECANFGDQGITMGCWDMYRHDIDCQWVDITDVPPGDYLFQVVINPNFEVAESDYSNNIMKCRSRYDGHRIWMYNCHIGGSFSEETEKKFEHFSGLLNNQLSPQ
Sequence of Human recombinant SSAO/VAP-1 (Q16853 34-763): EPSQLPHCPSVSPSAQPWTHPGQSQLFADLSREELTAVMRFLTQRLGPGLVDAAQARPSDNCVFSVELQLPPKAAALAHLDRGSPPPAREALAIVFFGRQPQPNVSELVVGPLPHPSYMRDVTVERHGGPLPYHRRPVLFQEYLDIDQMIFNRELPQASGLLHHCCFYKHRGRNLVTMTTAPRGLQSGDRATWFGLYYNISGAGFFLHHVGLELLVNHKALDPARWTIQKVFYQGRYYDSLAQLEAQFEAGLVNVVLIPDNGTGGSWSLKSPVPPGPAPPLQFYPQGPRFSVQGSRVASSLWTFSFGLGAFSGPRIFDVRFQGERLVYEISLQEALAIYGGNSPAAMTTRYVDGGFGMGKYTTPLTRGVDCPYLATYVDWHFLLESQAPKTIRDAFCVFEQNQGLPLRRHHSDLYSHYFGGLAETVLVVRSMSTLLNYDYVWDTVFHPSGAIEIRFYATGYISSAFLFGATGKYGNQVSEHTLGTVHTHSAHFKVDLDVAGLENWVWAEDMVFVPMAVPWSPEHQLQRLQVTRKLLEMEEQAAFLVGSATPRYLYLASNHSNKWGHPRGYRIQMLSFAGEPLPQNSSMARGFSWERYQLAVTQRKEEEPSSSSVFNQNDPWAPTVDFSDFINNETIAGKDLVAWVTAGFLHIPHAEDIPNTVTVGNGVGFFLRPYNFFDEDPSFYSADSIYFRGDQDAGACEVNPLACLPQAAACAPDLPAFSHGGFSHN

NC/C=C(\F)CS(=O)(=O)c1cccc(F)c1 [Compound 38, (Z)-3-fluoro-4-(3-fluorophenylsulfonyl)but-2-en-1-amine hydrochloride]
IC50 (Bovine LOX): < 10 µM | LOXL1 - Recovery of activity. (%) (LOXL1): 1.6% | IC50 (LOXL2): < 1 µM

NC/C=C(\F)CS(=O)(=O)c1cccc2cc(F)cnc12 [Compound 51, (Z)-3-fluoro-4-((3-fluoroquinolin-8-yl)sulfonyl)but-2-en-1-amine dihydrochloride]
IC50 [1]: > 10 µM | IC50 (Bovine LOX): < 10 µM | IC50 (Recombinant human MAO-B): > 30 µM | IC50 (LOXL2): < 1 µM

NC/C=C(\F)CS(=O)(=O)c1ccccc1OCc1ccccc1 [Compound 7, (Z)-4-((2-(benzyloxy)phenyl)sulfonyl)-3-fluorobut-2-en-1-amine hydrochloride]
IC50 [1]: > 30 µM | IC50 (Bovine LOX): < 10 µM | IC50 (Recombinant human MAO-B): > 30 µM | LOXL1 - Recovery of activity. (%) (LOXL1): 3.0% | IC50 (LOXL2): < 1 µM

CC(C)c1ncccc1S(=O)(=O)C/C(F)=C/CN [Compound 45, (Z)-3-fluoro-4-(2-isopropylpyridin-3-ylsulfonyl)but-2-en-1-amine dihydrochloride]
IC50 [1]: > 30 µM | IC50 (Bovine LOX): < 10 µM | LOXL1 - Recovery of activity. (%) (LOXL1): 6.6% | IC50 (LOXL2): < 1 µM

NC/C=C(\F)CS(=O)(=O)c1ccccc1OCc1ccc(S(N)(=O)=O)cc1 [Compound 8, (Z)-4-((2-((4-amino-2-fluorobut-2-en-1-yl)sulfonyl)phenoxy)methyl)benzenesulfonamide hydrochloride]
IC50 [1]: > 30 µM | IC50 (Bovine LOX): < 1 µM | IC50 (Recombinant human MAO-B): > 30 µM | LOXL1 - Recovery of activity. (%) (LOXL1): 35.1% | IC50 (LOXL2): < 1 µM

CS(=O)(=O)c1ccc(S(=O)(=O)C/C(F)=C/CN)cc1 [Compound 3, (Z)-3-fluoro-4-((4-(methylsulfonyl)phenyl)sulfonyl)but-2-en-1-amine]
IC50 [1]: > 30 µM | IC50 (Bovine LOX): < 10 µM | IC50 (Recombinant human MAO-B): > 30 µM | IC50 (LOXL2): < 10 µM

CC(C)NS(=O)(=O)c1ccc(COc2ccccc2S(=O)(=O)C/C(F)=C/CN)cc1 [Compound 14, (Z)-4-((2-((4-amino-2-fluorobut-2-en-1-yl)sulfonyl)phenoxy)methyl)-N-isopropylbenzenesulfonamide hydrochloride]
IC50 [1]: > 30 µM | IC50 (Bovine LOX): < 1 µM | IC50 (Recombinant human MAO-B): > 30 µM | LOXL1 - Recovery of activity. (%) (LOXL1): 1.9% | IC50 (LOXL2): < 1 µM

NC/C=C(\F)CS(=O)(=O)c1ccccn1 [Compound 30, (Z)-3-fluoro-4-(pyridin-2-ylsulfonyl)but-2-en-1-amine dihydrochloride]
IC50 (Bovine LOX): < 10 µM | LOXL1 - Recovery of activity. (%) (LOXL1): 1.9% | IC50 (LOXL2): < 1 µM

NC/C=C(\F)CS(=O)(=O)c1ccc2ccccc2n1 [Compound 32, (Z)-3-fluoro-4-(quinolin-2-ylsulfonyl)but-2-en-1-amine dihydrochloride]
IC50 (Bovine LOX): < 10 µM | IC50 (Recombinant human MAO-B): > 30 µM | IC50 (LOXL2): < 1 µM

Cc1ccc(S(=O)(=O)C/C(F)=C/CN)cn1 [Compound 46, (Z)-3-fluoro-4-(6-methylpyridin-3-ylsulfonyl)but-2-en-1-amine dihydrochloride]
IC50 (Bovine LOX): < 10 µM | LOXL1 - Recovery of activity. (%) (LOXL1): 1.0% | IC50 (LOXL2): < 1 µM

NC/C=C(\F)CS(=O)(=O)c1cc(C(F)(F)F)cc(C(F)(F)F)c1 [Compound 2, (Z)-4-((3,5-bis(trifluoromethyl)phenyl)sulfonyl)-3-fluorobut-2-en-1-amine hydrochloride]
IC50 [1]: > 30 µM | IC50 (Bovine LOX): < 10 µM | IC50 (Recombinant human MAO-B): > 30 µM | IC50 (LOXL2): < 10 µM

NC/C=C(\F)CS(=O)(=O)c1ccncc1 [Compound 29, (Z)-3-fluoro-4-(pyridin-4-ylsulfonyl)but-2-en-1-amine dihydrochloride]
IC50 (Bovine LOX): < 10 µM | LOXL1 - Recovery of activity. (%) (LOXL1): 8.6% | IC50 (LOXL2): < 1 µM

NC/C=C(\F)CS(=O)(=O)c1cc(Cl)cc(Cl)c1 [Compound 28, (Z)-4-(3,5-dichlorophenylsulfonyl)-3-fluorobut-2-en-1-amine hydrochloride]
IC50 [1]: > 30 µM | IC50 (Bovine LOX): < 10 µM | IC50 (LOXL2): < 1 µM
